As a reminder, the Ki is the dissociation constant of the complex between target and ligand, obtained from inhibition or displacement.

Our source for the Ki values is US5418235A, “Aminoalkyl-substituted 5-mercaptothiazoles, the preparation and use thereof” (BASF Aktiengesellschaft, priority 1991, dated 1995).

The test concerns the target dopamine D2 receptor (Rattus norvegicus, UniProt P61169). Nature of the test: Receptor binding assay, 3H-ADTN displacement on rat striatal membranes (affinity for the dopamine D2 receptor). Also on record: species or system rat (Sprague Dawley).
[1] abbreviates: rat striatal membranes, 1 nM 3H-ADTN, 0.1 μM SCH 23390, 40 min at 25° C., non-specific binding with 50 nM spiperone, read-out: Ki, affinity of the test substances for the dopamine D2 receptor.

Molecules are shown by their SMILES. Where a name gives a salt, the structure may show the parent alone. Read-outs that look alike come from different tables or passages of the source.

Sequence of dopamine D2 receptor (P61169 whole entry): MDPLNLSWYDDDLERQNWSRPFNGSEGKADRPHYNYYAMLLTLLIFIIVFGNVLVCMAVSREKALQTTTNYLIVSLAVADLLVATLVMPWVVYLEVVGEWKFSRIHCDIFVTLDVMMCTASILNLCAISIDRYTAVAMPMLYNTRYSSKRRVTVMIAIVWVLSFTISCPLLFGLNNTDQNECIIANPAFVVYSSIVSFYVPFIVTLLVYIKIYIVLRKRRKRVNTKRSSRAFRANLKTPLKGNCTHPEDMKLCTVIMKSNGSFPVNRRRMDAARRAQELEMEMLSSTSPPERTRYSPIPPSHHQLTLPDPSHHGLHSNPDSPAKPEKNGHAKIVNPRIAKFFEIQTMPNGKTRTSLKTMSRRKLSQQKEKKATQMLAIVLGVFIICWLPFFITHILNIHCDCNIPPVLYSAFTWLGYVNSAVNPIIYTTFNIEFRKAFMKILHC
Procedure: Striata from rats (Sprague Dawley, Charles River) were homogenized immediately after removal in 0.32M sucrose solution (0° C.). The homogenate was filtered through gauze, the filtrate was centrifuged at 1000 ×g (5 min at 4° C.) and the resulting supernatant was centrifuged at 40000 ×g (4° C., 10 min). The residue (membranes) was taken up in incubation buffer (50 mM tris-HCl, 1 mM MgCl2 and 0.1% ascorbic acid, pH 7.4) and incubated at 37° C. for 20 min. The residue was subsequently washed 2× with incubation buffer by resuspension and recentrifugation. The membranes were frozen in portions in liquid nitrogen.
The assay mixtures (1 ml) were composed of membranes (380 μg of protein), 1 nM ^3 H-ADTN (NEN, Dreieich Germany, specific radioactivity 1.4 TBq/mmol) and 0.1 μM SCH 23390 (total binding) or a) with the addition of 50 nM spiperone (non-specific binding) or b) with test substance. The mixtures were prepared in triplicate.
After the incubation (40 min at 25° C.) the mixtures were filtered through glass fiber filters (Whatman GF/B) and briefly washed with ice-cold washing buffer (tris-HCl, pH 7.4). The radioactivity retained on the filters was determined by liquid scintillation counting. The non-specific binding comprised about 40-50% of the total binding.
The evaluation of the competition plots and the determination of the dissociation constant took place by iterative non-linear regression analysis based on the "ligand" program (Muson and Rodbard: Anal. Biochem. 107 (1980) 220).

For `Cc1nc(N)sc1SCCN1CCC(c2ccccc2)CC1` [Example 1, 2-Amino-4-methyl-5-[2-(4-phenylpiperidinyl)ethyl-thio]thiazole hydrochloride], the Ki under setting [1] turned out to be 12 nM.

The compound `Cc1nc(N)sc1SCCN1CC=C(c2ccccc2)CC1` [Example 2, 2-Amino-5-[2-(1,2,3,6-tetrahydro-4-phenylpyridinyl)-ethylthio]-4-methylthiazole hydrochloride] returned a Ki of 3 nM.

As to `CCCN(CCSc1sc(N)nc1C)CCc1ccccc1` [Example 5, 2-Amino-4-methyl-5-[2-(N-phenethyl-N-propylamino)-ethylthio]thiazole hydrochloride], under setting [1], the Ki was 18 nM.

For the compound `CCCN(CCCSc1sc(N)nc1C)CCc1ccccc1` [Example 7, 2-Amino-4-methyl-5-[3-(N-phenethyl-N-propylamino)propylthio]thiazole tartrate], the Ki under setting [1] stood at 9 nM.

Regarding `Cc1nc(N)sc1SCCN1CCN(c2ccccc2)CC1` [Example 3, 2-Amino-4-methyl-5-[2-(4-phenylpiperazinyl)ethylthio]thiazole hydrochloride], the Ki under setting [1] was 19 nM.
